Values of other authors in patent US7981649B2 (priority 2001, dated 2011).

System: human hepatocyte and neuroblastoma cells

Compound	effect on cell metabolism
CCOP(=O)(OCC)Oc1ccc([N+](=O)[O-])cc1 [paraoxon]	opposite effects on hepatocyte and neuroblastoma cell metabolism
CCOP(=S)(OCC)Oc1ccc([N+](=O)[O-])cc1 [parathion]	opposite effects on hepatocyte and neuroblastoma cell metabolism
